What was measured:
CloA (SeCloA) [1] = biological target: T1, CloA (SeCloA) (Salmonella enterica, UniProt A0A5H6DAK1, H126A/E129A); assay: […] Å cryo-EM structure of CloA–dGTP–dTTP; format: binding
T1 construct: gene dgt; CloA^HEAA, octamer

CloA (SeCloA) [2] = biological target: T2, CloA (SeCloA); assay: activation of purified CloA dGTPase, phosphate release and LC-MS; format: biochemical, Salmonella enterica
T2 construct: wild-type CloA

[3] = biological target: Salmonella enterica SA20044414 Clover protein A (CloA), wild type (Salmonella enterica SA20044414); assay: cryo-EM structure; apo Salmonella CloA, 1 mg/mL, vitrified at 4°C; C4 symmetry
CloA (SeCloA) [4] = biological target: T2, CloA (SeCloA); assay: inhibition of purified CloA dGTPase, phosphate release (malachite green); format: biochemical, Salmonella enterica
CloA (SeCloA) [5] = biological target: T3, CloA (SeCloA); assay: […] Å cryo-EM of CloA co-expressed with CloB; LC-MS of released ligand; dGTPase inhibition (malachite green); format: biochemical, Salmonella enterica
T3 construct: full-length CloA from S. enterica SA20044414, octamer

[6] = biological target: Shewanella putrefaciens CN-32 dGTPase (Shewanella putrefaciens CN-32); assay: crystal structure; SpdGTPase at 10 mg/mL in 20 mM HEPES-KOH pH 7.5, 100 mM KCl; hanging drop, 18°C; reservoir 0.2 M magnesium chloride, 0.1 M HEPES-NaOH pH 7.5, 30% PEG-400

For `Cc1cn([C@H]2C[C@H](O)[C@@H](COP(=O)(O)OP(=O)(O)OP(=O)(O)O)O2)c(=O)[nH]c1=O` [dTTP], the “2.6 Å cryo-EM structure of CloA-dGTP-dTTP” value (CloA (SeCloA) [1]) was “In the CloA–dGTP–dTTP active state structure, dTTP is bound at the CloAAB interface in an adjacent pocket” and the EC50 (CloA (SeCloA) [2]) was roughly 15 µM.
Work on “Salmonella enterica SA20044414 Clover protein A (CloA), wild type (enzyme)” yielded a stoichiometry N [3] of 8.
`Cc1cn([C@H]2C[C@H](OP(=O)(O)OC[C@H]3O[C@@H](n4cc(C)c(=O)[nH]c4=O)C[C@@H]3O)[C@@H](COP(=O)(O)OP(=O)(O)O)O2)c(=O)[nH]c1=O` [p2diT] showed an IC50 (CloA (SeCloA) [4]) of roughly 20.9 µM.
`Cc1cn([C@H]2C[C@H](OP(=O)(O)OC[C@H]3O[C@@H](n4cc(C)c(=O)[nH]c4=O)C[C@@H]3O)[C@@H](COP(=O)(O)OP(=O)(O)OP(=O)(O)O)O2)c(=O)[nH]c1=O` [p3diT, 5′-triphosphothymidyl-3′5′-thymidine] showed an IC50 (CloA (SeCloA) [5]) of roughly 7.6 µM.
“Shewanella putrefaciens CN-32 dGTPase (enzyme)” was tested, and the stoichiometry N [6] was 6.
